This is an account of results in US6982273B1, “Compositions and methods containing bioavailable Se-methyl-L-selenocysteine for human and veterinary use” (Sami Labs Ltd., priority 2002, dated 2006).

The subject of experiment [1] is rats with macrophage associated liver injury and endotoxemia. Description: Suppression of macrophage associated liver injury and endotoxemia (P. acnes + LPS) in rats. It is filed as in vivo, rat. The settings on record: Se-methyl-L-selenocysteine 4 mg/kg, composition 2 mg/kg. As for the experimental part:
The composition used consisted of Se-methyl-L-selenocysteine of the parent application to which piperine from black pepper fruit was added such that the animals received a co-administered daily dose of 5 mg of piperine.
Study Design: Male Wistar King A rats (200–250 g) were maintained on a basal pelleted diet and water ad libitum under normal temperature and lighting conditions. All rats received an injection of 40 mg/kg body weight of heat killed Propionibacterium acnes (ATCC 11827), 20 mg/ml suspension in saline via the tail vein on day 1. Seven days later they received an intravenous injection of 350 mcg/kg body weight of lipopolysaccharide (LPS, Difco Laboratories, MI, USA), 200 mcg/ml solution in saline). 5 rats received a daily dose of 4 mg/kg body weight of Se-methyl-L-selenocysteine and 5 rats received 2 mg/kg body weight of the composition of the invention, orally for 3 days in the feed, 4 control rats received no supplementation, prior to induction of liver injury, 4 normal controls were not subjected to liver injury. Serum levels of TNF-α were measured. TNF-α is thought to be the principal mediator of the deleterious effects of LPS.

In experiment [2] the test system is dimethyl-benz(a)anthracene-induced mammary tumor. The conditions noted are these: 1–2 ppm Se in diet from 1 week before DMBA until sacrifice; order of efficacy: Se-methylselenocysteine > selenite > selenocysteine > dimethyl selenoxide; cited from earlier work.
A further experiment deals with glutathione peroxidase. The settings on record: selenium-depleted animals; efficiency: Se-methylselenocysteine > dimethyl selenoxide > trimethylselenonium; cited from earlier work.

`C[Se]C[C@H](N)C(=O)O` [Se-methyl-L-selenocysteine]: in experiment [1] (oral 3 days), the Catalase was 31.16 ± 3.95 micromole of H2O2 consumed/min, the “Glutathione (GSH)” value amounted to 7.43 ± 0.69 mcg/mg protein, the Glutathione peroxidase was 8.13 ± 0.71 micromole of GSH oxidized/min/ and the “Serum Lipid peroxides” value is on record as 2.71 ± 0.32 MDA formed/mg protein. Further, in experiment [1] (oral 3 days), the Superoxide dismutase came to 4.91 ± 0.48 Units/min/mg protein and the “TNF-alpha (serum)” value was 81 ± 6 ng/mL. Moreover, in experiment [1] (oral in feed 3 days before injury, survivors/n), the Survival rate is on record as 3/5. Further, the “chemopreventive activity (tumor inhibition)” value in experiment [2] was “tumor inhibition”. For the same compound, the “ability to restore glutathione peroxidase activity” value (from here on “ability”) with glutathione peroxidase is reported as “fully replete”.
As to `C[Se](C)=O` [dimethyl selenoxide], the “chemopreventive activity (tumor inhibition)” value in experiment [2] is on record as “tumor inhibition”. Also, the “ability” value in the experiment with glutathione peroxidase was “fully replete”.
In the case of `O=[Se](O)O` [selenite], the “chemopreventive activity (tumor inhibition)” value in experiment [2] is “tumor inhibition”.
Consider `N[C@@H](C[SeH])C(=O)O` [selenocysteine], for which the “chemopreventive activity (tumor inhibition)” value in experiment [2] is “tumor inhibition”.
In the case of `C[Se+](C)C` [trimethylselenonium], the “ability” value in the experiment with glutathione peroxidase was “fully replete”.
